The values that follow come from patent US6642365B1, “Anti-(retro)viral conjugates of saccharides and acetamidino or guanidino compounds” (Yeda Research and Development Co. Ltd., priority 2001, dated 2003).

pEC50, pIC50, pKd: −log10 of the molar value. “Also recorded” adds a separate entry of the source. Like-named read-outs stand apart in the source and are kept apart here.

Data set [1] relates to Tat-TAR complex. Particulars: cited from earlier work.
The test system of data set [2] is TAR RNA. The data set is described as follows: L-arginine-Amberlite affinity column elution of TAR RNA. The data set is classed as binding, HIV-1. The settings on record: concentration that elutes 50% of TAR RNA from L-arginine-Amberlite affinity column. The protocol: The model Tat peptide (R52: […]) was prepared by the Weizmann Institute Chemical Services and was purified by reverse phase HPLC (C-18) (Lapidot et al., 1995). […] The RNA was transcriptionally labeled with α-^32P UTP, purified on a 12% polyacrylamide/7M urea gel (19:1 acrylamide:bis-acrylamide) and was eluted from the gel by 0.5M ammonium acetate, 10 mM magnesium acetate, 1 mM EDTA and 0.1% SDS. The sample was subjected to phenol extraction and the RNA was precipitated from 70% ethanol. Purified RNA was dissolved in diethyl pyrocarbonate-treated water (DEPC water), its concentration was determined by UV absorption at 260 nm and the specific radioactivity was determined by scintillation counting on a LS 1701 “Bruker” counter.
The L-arginine-Amberlite resin was prepared as follows: Carboxyl groups of Amberlite IRC-50 resin were covalently modified with ethanolamine using 1-(3-dimethylaminopropyl) 3-ethylcarbodiimide, a water-soluble coupler. The hydroxy ethyleneamide resin obtained was washed and dried, and L-arginine (12-16 μmols per ml of resin) was coupled to the hydroxy groups of the resin via an isourea moiety using a standard cyanogen bromide protocol. The final concentration of arginine residues was 12-16 μmol per ml of resin. The swollen L-arginino-Amberlite resin (200 μl) was packed into a plastic mini-column and equilibrated with buffer containing 40 mM Tris HCl, pH 7.5, 250 mM NaCl, 0.5 mM EDTA and 5 mM MgCl2 (buffer A). Approximately 1 ng of ^32P-UTP labeled TAR RNA in buffer A was loaded on the column. The column was eluted 3 to 5 times with 400 μl portions of buffer A, until no radioactivity was detected in the eluent. […] Each of the test compounds was dissolved in buffer A and passed through the column in 300 μl portions. Radioactivity of the eluates was determined by scintillation counting on a LS 1701 “Bruker” counter. CE50 values, the concentrations of inhibitors eluting 50% of the radioactive material from the column, were determined.

Data set [3] has as its target Tat-TAR interaction. The data set is described as follows: Gel-shift inhibition of Tat R52 peptide binding to TAR RNA. Details: species or system HIV-1. The settings on record: TAR RNA 6 nM; 60 nM Tat R52; read-out: CI50 (the source's name). On the procedure:
The model Tat peptide (R52: […]) was prepared by the Weizmann Institute Chemical Services and was purified by reverse phase HPLC (C-18) (Lapidot et al., 1995). A 31-nt TAR RNA fragment (5′-GGCCAGAUCUGAGCCUGGGAGCUCUCUGGCC-3′) containing the sequence 18-44 of the HIV LTR (Aboul-Ela et al., 1995) was transcribed in vitro by T7 RNA polymerase (Promega) from a synthetic single strand DNA template containing the 17 base double-stranded T7 promoter (both DNA oligonucleotides were prepared by the Weizmann Institute Chemical Services). The RNA was transcriptionally labeled with α-^32P UTP, purified on a 12% polyacrylamide/7M urea gel (19:1 acrylamide:bis-acrylamide) and was eluted from the gel by 0.5M ammonium acetate, 10 mM magnesium acetate, 1 mM EDTA and 0.1% SDS. The sample was subjected to phenol extraction and the RNA was precipitated from 70% ethanol. Purified RNA was dissolved in diethyl pyrocarbonate-treated water (DEPC water), its concentration was determined by UV absorption at 260 nm and the specific radioactivity was determined by scintillation counting on a LS 1701 “Bruker” counter.
To study the affinity of the test compounds to TAR, gel-shift and gel-shift inhibition experiments were performed. The binding reaction mixtures (20 μl) contained ^32P-labeled TAR (18-44) RNA oligonucleotide (3-6 nM) and Tat R52 peptide (35-75 nM) in a binding buffer (10 mM Tris-HCl pH 7.5, 70 mM NaCl, 0.2 mM EDTA and 5% glycerol). The reaction mixtures were incubated for 10 minutes on ice and resolved by electrophoresis on a 10% non-denaturing polyacrylamide gel (40:1 acrylamide:bis-acrylamide) at 200V, for 3 h at 4° C. Gels were dried and visualized by autoradiography. Quantitations were obtained by optical densitometry of films. Alternatively, results were visualized by exposing the wet gels to Fuji phosphoimager plates, which were read on a “Storm 820” (Molecular Dynamics) phosphoimager. Different concentrations of TAR RNA (6,12 and 20 nM) were titrated with various concentrations of Tat R52 in the binding reactions.
Binding inhibition by the monosaccharide derivatives was measured by adding several concentrations of each compound to reaction mixtures containing 60 nM Tat 52 and 6 nM ^32P TAR, attaining 100% binding of Tat TAR in the absence of inhibitors (Lapidot et al., 1995).

Data set [4] addresses Tat-TAR interaction. Described as above. On the set-up: species or system HIV-1. The settings on record: TAR RNA 2 nM; read-out: CI50 (the source's name).
In data set [5] the test system is HIV Rev-RRE interaction. The settings on record: at 100 μM; cited from earlier work.
Data set [6] concerns HIV-1 NL4-3. The data set is described as follows: Virus-binding assay, p24 antigen bound to MT-4 cells. The data set is classed as cell-based. On the procedure:
MT4 cells (5×10^5) were incubated with supernatant containing 1×10^5 pg of p24 antigen of wild type HIV-1 in the presence of different concentrations of the test compound. One hour after infection, cells were washed 3 times with PBS and p24 antigen bound to the cells was determined by a commercial ELISA test (Coulter, Spain).

Data set [7] relates to HIV-1 IIIB. Kind of data set: Anti-HIV assay, syncytium formation and tetrazolium colorimetric assay. The settings on record: range over IIIb, 2D, AZT resistant, UC781 resistant and clade C HIV-1. The data set is classed as cell-based. On the procedure: (§1) T-tropic HIV-1 laboratory strains IIIb, 2D as well as AZT-resistant and UC781-resistant strains were utilized in this study, along with clinical isolate (clade C). HIV-1 clinical isolate, resistant to AZT is a generous gift from Dr. Mark A. Wainberg, McGill AIDS Center, McGill University, Montreal, Canada.
(§2) MT-2 or MT-4 cells were cultured in RPMI 1640 supplemented with 10% fetal calf serum (FCS), 0.2 mM glutamine and penicilline/streptomycin/nistatin mixture. The cells were propagated in 96-well tissue culture plates at the density of 5×10^4 cells per well. Peripheral mononuclear blood cells (PMBC) were separated from whole blood samples by centrifugation in Ficoll gradient for 10 min at 400 g. PMBC were cultured in the same medium in 24-well tissue culture plates at the density of about 10^6 cells per well.

Data set [8] relates to HIV-1 clinical isolate (clade C). The data set is described as above. The data set is classed as cell-based. The protocol: as §1, §2
Data set [9] deals with T1, CXCR4 (Homo sapiens, UniProt P61073). Kind of data set: Inhibition of anti-CXCR4 mAb (12G5) binding, flow cytometry, PHA-activated PBMC. Details: endogenous in cells. On the procedure: (§3) Measurement of chemokine receptors CXCR4, CCR5 and the CD4 receptor on phytohemagglutinin (PHA)-activated PBMC was performed by flow cytometry analysis. Briefly, 0.5×10^6 cells were washed in ice-cold phosphate-buffered saline (PBS) and incubated for 30 minutes at 4÷C. with fluorescent labelled mAb 12G5 and 2D7 and Leu3a (Becton Dickinson, San Jose, Calif.) or with isotype control mAbs in the presence or absence of the test compound. Then, the cells were washed with ice-cold PBS and were fixed in PBS containing 1% formaldehyde. For each sample, 10,000 events were analysed in a FACScalibur™ system (Becton Dickinson). Data were acquired and analysed with CellQuest™ software (Becton Dickinson).
T1 sequence (P61073 whole entry): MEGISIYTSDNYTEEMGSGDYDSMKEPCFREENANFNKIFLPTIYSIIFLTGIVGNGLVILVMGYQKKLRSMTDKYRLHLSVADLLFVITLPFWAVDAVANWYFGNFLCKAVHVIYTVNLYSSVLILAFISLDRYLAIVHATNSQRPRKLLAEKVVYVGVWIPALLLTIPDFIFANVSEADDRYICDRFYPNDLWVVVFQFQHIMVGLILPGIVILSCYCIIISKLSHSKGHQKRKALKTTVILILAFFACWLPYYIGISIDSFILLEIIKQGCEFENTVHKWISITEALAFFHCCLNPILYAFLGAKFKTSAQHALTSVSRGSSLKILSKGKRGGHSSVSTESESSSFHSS
Background: Flow cytometry measures light scatter and fluorescence of single cells or particles in a stream.

Data set [10] deals with HIV-1 2D. The data set is classed as cell-based. On the procedure:
as §1, §2

The subject of data set [11] is MT-2 cells as well as PMBC lines ETH and IS. The settings on record: ratio CC50/EC50. The protocol:
(§4) The cells were infected by incubation with different titers of the HIV-1 strains for 2 hrs at 37° C. in the presence or absence of the AAC of the invention. Then the cells were washed from the virus by centrifugation at 400 g and the supernatants were discarded. The cells were resuspended in culture medium, supplemented with different concentrations of the test compounds. The cells were allowed to proliferate for 5 days, the number of viable cells was quantified by a tetrazolium-based colorimetric method (CellTiter 96® AQueous One solution Cell Proliferation Assay, Promega). Anti-HIV activity in P4-CCR5 MAGI cells was done as follows: cells (1×10^5/ml) were infected with 10 ng/ml of p24 antigen of HIV-1 Ba-L in the presence of varying concentrations of the test compound. 24 hours post infection, cells were washed twice with PBS and resuspended in the medium containing the appropriate drug concentration. Five days after infection the cells were washed with PBS and evaluated for β-galactosidase activity.

The target in data set [12] is T1, CXCR4. The data set is described as follows: Inhibition of anti-CXCR4 mAb (12G5) binding, flow cytometry, SUP-T1 cells. On the set-up: endogenous in cells. The protocol:
as §3

Data set [13] relates to HIV-1 NL4-3. The data set is described as follows: Anti-HIV assay, MTT, MT-4 cells. Type of data set: cell-based. The protocol: The HIV-1 strains NL4-3 and Ba-L and the CD4^+lymphocytic cell lines SUP-T1, MT-4 and MT-2 and P4-CCR5 MAGI cells were obtained from the MRC AIDS reagent program or the NIH, AIDS Research and Reference Reagent Program.
as §4

Data set [14] has as its system HIV-1 NL4-3 AMD3100-resistant. Type of data set: cell-based.

As to `NC[C@@H]1O[C@H](O[C@H]2[C@@H](O)[C@H](O[C@@H]3[C@@H](O)[C@H](N)C[C@H](N)[C@H]3O[C@H]3O[C@H](CN)[C@@H](O)[C@H](O)[C@H]3N)O[C@@H]2CO)[C@H](N)[C@@H](O)[C@@H]1O` [Neomycin B, reference compound], the “concentration range of inhibitory effect on Tat binding to TAR” value in [1] (in vitro) is 1 to 100 µM.

In turn, `Cl.N=C(N)NCCC[C@H](N)C(=O)O` [Arginine HCl, reference compound] displayed a CE50 in [2] of 1500 mM. In addition, the pIC50 is 1.42 in data set [3] and 2.40 in [4].

With gentamicin, in [5], the “inhibition of Rev-RRE interaction” value is recorded as “do not display any inhibition”.

“native Tat: HIV trans-activator of transcription protein”: the pKd in data set [1] (comparison value, read-out: Kd of the native Tat-TAR complex) was 7.92 to 8.22.

For Dextran sulfate [reference compound], in data set [6] (1 hour at 37° C., dose dependent), the “binding of HIV-1 NL4-3 to MT-4 cells” value was “active”.

Regarding “Hexa/penta-argininamido-neomycin B conjugate [NeoR]”, the negative-log EC50 (pEC50) in data set [7] is 5.40 to 5.52; in data set [8] (average of two independent experiments in duplicates) it was 5.52; in data set [10], 5.40. The “inhibition of virus growth” value in data set [8] (MT-2 cells infected in presence of 20 μM R3G or 10 μM NeoR, then 3 days without AAC) was found to be 60%. Further, the “binding of 12G5 mAb to PHA-activated PBMC” value in data set [9] (5 μM) is listed as “suppressed significantly more than in the presence of 5 μM R3G; also recorded: suppressed”. In addition, the pIC50 in [9] (read-out: IC50-12G5 PMBC) is 5.62. Also, in data set [10], the “antiviral effect in the presence of AZT” value was “additive”. Moreover, the TI50 in [11] was 60-85. For the same molecule, in data set [12] (inhibition of 12G5 binding to SUP-T1 cells or PMBC), the “affinity for CXCR4” value is “high affinity”.

`CO[C@@H]1O[C@H](CC(N)=O)C(O)[C@H](O)[C@@H]1O` (stereo partly drawn) [compound 8, Methyl 6-deoxy-α-D-mannoheptopyranuronic acid amide] came in with a melting point of 177 °C.

On to SDF-1α, for which the negative logarithm of the EC50 (pEC50) in data set [13] was 7.40; in data set [14] (MTT assay, read-out: EC50 HIV-1 AMD 3100res), < 6.00. The “cross-resistance of NL4-3 AMD3100-resistant virus” value in [14] (relative to NL4-3) was > 25 fold. The “binding of HIV-1 to MT-4 cells” value in [6] (0.5 μg/ml) is “did not inhibit the binding”. This molecule also had a pIC50 in data set [12] of 7.89.

Broadly, the pKd is −log10 of the Kd, conventionally taken in molar units. As usually defined, the pEC50 is the EC50 on a negative log10 scale, so that one unit is a factor of ten. As usually defined, the melting point is the temperature, or range, at which the solid turns liquid.
